The record followed here is patent US20230203043A1, “NOVEL IMIDAZOPYRAZINE DERIVATIVES” (Hoffmann-La Roche Inc., priority 2020, published 2023).

Structures are written as SMILES. Where a name gives a salt, the structure may show the parent alone.

The first assay concerns Acinetobacter baumannii ATCC17961. The experiment in a line: Antimicrobial susceptibility testing: 90% growth inhibitory concentration (IC90) determination in Iso-Sensitest broth, OD600 growth. The assay is classed as cell-based. Particulars: Acinetobacter baumannii, ATCC17961, 16 h, read-out: A. baumannii ATCC 17961 IC90 (uM), strain ATCC 17961, OD600 growth over 16 h. A digest of the protocol:
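Compounds were twofold serially diluted in DMSO across 10 points (e.g. 50 to 0.097 μM final) and inoculated at ~5×10^(5) CFU/ml. Plates incubated at 35±2° C, with OD600 read every 20 minutes over 16 h. IC90 was derived from growth inhibition during logarithmic growth.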
The IC90 is the point of the concentration-response curve where the effect stands at 90%. In the case of `CNC(=O)c1ccc(Nc2nccn3c(-c4cn(CCCc5ccc(CN)cc5)nc4C(F)(F)F)cnc23)cc1Cl` [Example 594, 4-((3-(1-(3-(4-(aminomethyl)phenyl)propyl)-3-(trifluoromethyl)-1H-pyrazol-4-yl)imidazo[1,2-a]pyrazin-8-yl)amino)-2-chloro-N-methylbenzamide formate], the IC90 was found to be 0.164 µM.
Same read-out and setting: with `CCc1cc(Nc2nccn3c(-c4cn(CC#N)nc4C(F)(F)F)cnc23)ccc1C(=O)NCCCNC(=O)CCN` [Example 702, N-(3-(3-aminopropanamido)propyl)-4-((3-(1-(cyanomethyl)-3-(trifluoromethyl)-1H-pyrazol-4-yl)imidazo[1,2-a]pyrazin-8-yl)amino)-2-ethylbenzamide formate] the figure was 0.383 µM.
Still for that read-out and setting: next, `CCc1cc(Nc2nccn3c(-c4cn(C5COC5)nc4C(F)(F)F)cnc23)ccc1C(=O)NCCOCCN` [Example 241, N-[2-(2-aminoethoxy)ethyl]-2-ethyl-4-[[3-[1-(oxetan-3-yl)-3-(trifluoromethyl)pyrazol-4-yl]imidazo[1,2-a]pyrazin-8-yl]amino]benzamide formate]: 0.322 µM; `Cc1cc(Nc2nccn3c(-c4cn(C)nc4C(F)(F)F)cnc23)ccc1C(=O)N1CCN(C(=O)[C@@H]2CCNC[C@@H]2O)CC1` [Example 474, formic acid; [4-[(3R,4R)-3-hydroxypiperidine-4-carbonyl]piperazin-1-yl]-[2-methyl-4-[[3-[1-methyl-3-(trifluoromethyl)pyrazol-4-yl]imidazo[1,2-a]pyrazin-8-yl]amino]phenyl]methanone]: 1.34 µM.
The same measure, in the same setting: next, `Cc1cc(Nc2nccn3c(-c4cn(CC#N)nc4C(F)(F)F)cnc23)ccc1C(=O)N[C@H](C)C(=O)N1CCNCC1` [Example 726, 4-[[3-[1-(cyanomethyl)-3-(trifluoromethyl)pyrazol-4-yl]imidazo[1,2-a]pyrazin-8-yl]amino]-2-methyl-N-[(1R)-1-methyl-2-oxo-2-piperazin-1-yl-ethyl]benzamide formate]: 0.463 µM; `Cn1nccc1Cn1cc(-c2cnc3c(Nc4ccc(C(=O)N5CCNCC5)c(Cl)c4)nccn23)c(C(F)(F)F)n1` [Example 181, [2-chloro-4-[[3-[1-[(2-methylpyrazol-3-yl)methyl]-3-(trifluoromethyl)pyrazol-4-yl]imidazo[1,2-a]pyrazin-8-yl]amino]phenyl]-piperazin-1-ylmethanone formate]: 0.293 µM.
Regarding `CCc1cc(Nc2nccn3c(-c4cn(CC#N)nc4C(F)(F)F)cnc23)ccc1C(=O)NCC(=O)N1CC2(CNC2)C1` [Example 505, 4-[[3-[1-(cyanomethyl)-3-(trifluoromethyl)pyrazol-4-yl]imidazo[1,2-a]pyrazin-8-yl]amino]-N-[2-(2,6-diazaspiro[3.3]heptan-2-yl)-2-oxo-ethyl]-2-ethyl-benzamide formate], the IC90 turned out to be 0.449 µM.
Same read-out and setting: with `Cc1cc(Nc2nccn3c(-c4c[nH]nc4C(F)(F)F)cnc23)ccc1C(=O)N1CCN(C(=O)N[C@@H]2CCNC2)CC1` [Example 416, formic acid; 4-[2-methyl-4-[[3-[3-(trifluoromethyl)-1H-pyrazol-4-yl]imidazo[1,2-a]pyrazin-8-yl]amino]benzoyl]-N-[(3R)-pyrrolidin-3-yl]piperazine-1-carboxamide] the figure was 0.441 µM; with `Cc1cc(Nc2nccn3c(-c4cn(CC#N)nc4C(F)(F)F)cnc23)ccc1C(=O)NCC(=O)N1CC(N)C1` [Example 751, N-[2-(3-aminoazetidin-1-yl)-2-oxo-ethyl]-4-[[3-[1-(cyanomethyl)-3-(trifluoromethyl)pyrazol-4-yl]imidazo[1,2-a]pyrazin-8-yl]amino]-2-methyl-benzamide formate], 0.627 µM; with `N[C@H]1CC[C@H](C(=O)N2CCN(C(=O)c3ccc(Nc4nccn5c(-c6cn(CC(F)F)nc6C(F)(F)F)cnc45)cc3Cl)CC2)C1` [Example 583, (4-((1S,3S)-3-aminocyclopentane-1-carbonyl)piperazin-1-yl) (2-chloro-4-((3-(1-(2,2-difluoroethyl)-3-(trifluoromethyl)-1H-pyrazol-4-yl)imidazo[1,2-a]pyrazin-8-yl)amino)phenyl) methanone formate], 0.347 µM.
Turning to `Cc1cc(Nc2nccn3c(-c4cn(CC#N)nc4C(F)(F)F)cnc23)ccc1C(=O)NCCCNC(=O)[C@@H]1C[C@@H](O)CN1` [Example 367, (2S,4R)-N-[3-[[4-[[3-[1-(cyanomethyl)-3-(trifluoromethyl)pyrazol-4-yl]imidazo[1,2-a]pyrazin-8-yl]amino]-2-methylbenzoyl]amino]propyl]-4-hydroxypyrrolidine-2-carboxamide formate], the IC90 came to 0.468 µM.

The same assay, now with this note: Acinetobacter baumannii, ATCC17961, 16 h, strain ATCC 17961, OD600 growth over 16 h, read-out: A. baumannii ATCC 17961 IC90.
With `C#CCn1cc(-c2cnc3c(Nc4ccc(C(=O)NCCOC[C@@H](C)N)c(CC)c4)nccn23)c(C(F)(F)F)n1` [Example 149, N-[2-[(2R)-2-aminopropoxy]ethyl]-2-ethyl-4-[[3-[1-prop-2-ynyl-3-(trifluoromethyl)pyrazol-4-yl]imidazo[1,2-a]pyrazin-8-yl]amino]benzamide], the IC90 stood at 0.102 µM.
The same measure, in the same setting: with `O=C(NC1CN(C(=O)c2ccc(Nc3nccn4c(-c5c[nH]nc5C(F)(F)F)cnc34)cc2Cl)C1)[C@@H]1C[C@@H](O)CN1` [Example 175, (2S,4R)-N-[1-[2-chloro-4-[[3-[3-(trifluoromethyl)-1H-pyrazol-4-yl]imidazo[1,2-a]pyrazin-8-yl]amino]benzoyl]azetidin-3-yl]-4-hydroxypyrrolidine-2-carboxamide] the figure was 0.357 µM; with `N#CCn1cc(-c2cnc3c(Nc4ccc(C(=O)N5CCC(N)CC5)c(Cl)c4)nccn23)c(C(F)(F)F)n1` [Example 202, 2-[4-[8-[4-(4-aminopiperidine-1-carbonyl)-3-chloroanilino]imidazo[1,2-a]pyrazin-3-yl]-3-(trifluoromethyl)pyrazol-1-yl]acetonitrile], 0.109 µM; with `C[C@@H](NC(=O)c1ccc(Nc2nccn3c(-c4cn(CC#N)nc4C(F)(F)F)cnc23)cc1Cl)C(=O)N1CC[C@@H](N)C1` [Example 674, N-[(1R)-2-[(3R)-3-aminopyrrolidin-1-yl]-1-methyl-2-oxo-ethyl]-2-chloro-4-[[3-[1-(cyanomethyl)-3-(trifluoromethyl)pyrazol-4-yl]imidazo[1,2-a]pyrazin-8-yl]amino] benzamide formate], 0.315 µM.
Turning to `O=C(NC1CCC(NC(=O)[C@H]2C[C@H](O)CN2)C1)c1ccc(Nc2nccn3c(-c4c[nH]nc4C(F)(F)F)cnc23)cc1Cl` (mixture of isomers) [Example 373, rac-(2R,4S)-N-[3-[[2-chloro-4-[[3-[3-(trifluoromethyl)-1H-pyrazol-4-yl]imidazo[1,2-a]pyrazin-8-yl]amino]benzoyl]amino]cyclopentyl]-4-hydroxypyrrolidine-2-carboxamide], the IC90 turned out to be 1.11 µM.
Still for that read-out and setting: next, `C#CCn1cc(-c2cnc3c(Nc4ccc(C(=O)NCCOCCN)c(CC)c4)nccn23)c(C(F)(F)F)n1` [Example 174, N-[2-(2-aminoethoxy)ethyl]-2-ethyl-4-[[3-[1-prop-2-ynyl-3-(trifluoromethyl)pyrazol-4-yl]imidazo[1,2-a]pyrazin-8-yl]amino]benzamide]: 0.081 µM.
With `N#CCNC(=O)c1ccc(Nc2nccn3c(-c4cn(CC#N)nc4C(F)(F)F)cnc23)cc1Cl` [Example 231, 2-chloro-N-(cyanomethyl)-4-[[3-[1-(cyanomethyl)-3-(trifluoromethyl)pyrazol-4-yl]imidazo[1,2-a]pyrazin-8-yl]amino]benzamide], the IC90 turned out to be 0.102 µM.
On the same count and under the same terms, with `CCNC(=O)c1ccc(Nc2nccn3c(-c4c[nH]nc4C(F)(F)F)cnc23)cc1CC` [Example 280, N,2-diethyl-4-[[3-[3-(trifluoromethyl)-1H-pyrazol-4-yl]imidazo[1,2-a]pyrazin-8-yl]amino]benzamide] the figure was 0.517 µM; with `O=C(c1ccc(Nc2nccn3c(-c4c[nH]nc4C(F)(F)F)cnc23)cc1Cl)N1CCN(C(=O)[C@@]2(O)CCCNC2)CC1` [Example 248, [2-chloro-4-[[3-[3-(trifluoromethyl)-1H-pyrazol-4-yl]imidazo[1,2-a]pyrazin-8-yl]amino]phenyl]-[4-[(3R)-3-hydroxypiperidine-3-carbonyl]piperazin-1-yl]methanone], 0.311 µM; with `O=C(c1ccc(Nc2nccn3c(-c4c[nH]nc4C(F)(F)F)cnc23)cc1F)N1CCNCC1` [Example 805, (2-fluoro-4-((3-(3-(trifluoromethyl)-1H-pyrazol-4-yl)imidazo[1,2-α]pyrazin-8-yl)amino)phenyl)(piperazin-1-yl)methanone hydrochloride], 0.88 µM.
Still for that read-out and setting: with `CCc1cc(Nc2nccn3c(-c4cn(CC#N)nc4C(F)(F)F)cnc23)ccc1C(=O)NCC(=O)NCC1CNC1` [Example 521, N-[2-(azetidin-3-ylmethylamino)-2-oxo-ethyl]-4-[[3-[1-(cyanomethyl)-3-(trifluoromethyl)pyrazol-4-yl]imidazo[1,2-a]pyrazin-8-yl]amino]-2-ethyl-benzamide formate] the figure was 0.38 µM; with `NC1CCN(C(=O)CNC(=O)c2ccc(Nc3nccn4c(-c5c[nH]nc5C(F)(F)F)cnc34)cc2Cl)CC1` [Example 136, N-[2-(4-aminopiperidin-1-yl)-2-oxoethyl]-2-chloro-4-[[3-[3-(trifluoromethyl)-1H-pyrazol-4-yl]imidazo[1,2-a]pyrazin-8-yl]amino]benzamide], 1.33 µM.

The same assay, now with this note: strain ATCC 17961, OD600 growth over 16 h, read-out: A. baumannii ATCC 17961 IC90.
In the case of `C[C@H](NC(=O)c1ccc(Nc2nccn3c(-c4c[nH]nc4C(F)(F)F)cnc23)cc1Cl)C(=O)N1CCNCC1` [Example 140, 2-chloro-N-[(2S)-1-oxo-1-piperazin-1-ylpropan-2-yl]-4-[[3-[3-(trifluoromethyl)-1H-pyrazol-4-yl]imidazo[1,2-a]pyrazin-8-ylamino]benzamide formate], the IC90 stood at 3.31 µM.
